From PubChem BioAssay AID248 (DTP/NCI, 2004)
Values joined by “and” are separate entries in the source; they are usually repeats but may differ in a detail not shown here. Identical values can stand only once. Inconclusive results and toxic doses are left out. No stated cut-off is given here; in the data, active means T/C of 150% or more; inactive means T/C below 125%. Peptide text beside a SMILES is read from it. * marks the point of attachment. Cbz = O=C(OCc1ccccc1)*

Tested on: L1210 leukemia ip in BDF1 mice, survival T/C
Assay: NCI In Vivo Anticancer Drug Screen. Data for tumor model L1210 Leukemia (intraperitoneal) in B6D2F1 (BDF1) mice
Conditions: endpoint: mean survival time, higher = longer survival
How it was run: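 In this screen, tumor-bearing mice given compound are compared to those given vehicle, and their survival values are reported as a treated-to-control quotient.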

[1] = dose: 100.0 mg/kg/injection, schedule: Q01DX001 (ip), vehicle: saline
[2] = dose: 200.0 mg/kg/injection, schedule: Q01DX001 (ip), vehicle: saline
[3] = dose: 400.0 mg/kg/injection, schedule: Q01DX001 (ip), vehicle: saline
[4] = dose: 100.0 mg/kg/injection, schedule: Q04DX002 (ip), vehicle: saline with Tween-80
[5] = dose: 200.0 mg/kg/injection, schedule: Q04DX002 (ip), vehicle: saline with Tween-80
[6] = dose: 400.0 mg/kg/injection, schedule: Q04DX002 (ip), vehicle: saline with Tween-80
[7] = dose: 100.0 mg/kg/injection, schedule: Q04DX002 (ip), vehicle: saline
[8] = dose: 200.0 mg/kg/injection, schedule: Q04DX002 (ip), vehicle: saline
[9] = dose: 100.0 mg/kg/injection, schedule: Q01DX009 (ip), vehicle: Klucel (hydroxypropylcellulose) (HPC)
[10] = dose: 200.0 mg/kg/injection, schedule: Q01DX009 (ip), vehicle: Klucel (hydroxypropylcellulose) (HPC)
[11] = dose: 400.0 mg/kg/injection, schedule: Q01DX009 (ip), vehicle: Klucel (hydroxypropylcellulose) (HPC)
[12] = dose: 5.0 mg/kg/injection, schedule: Q01DX001 (ip), vehicle: saline
[13] = dose: 10.0 mg/kg/injection, schedule: Q01DX001 (ip), vehicle: saline
[14] = dose: 20.0 mg/kg/injection, schedule: Q01DX001 (ip), vehicle: saline
[15] = dose: 40.0 mg/kg/injection, schedule: Q01DX001 (ip), vehicle: saline

Measured: T/C

COC(=O)C(CC(C)C)NC(=O)C(Cc1ccccc1)NC(=O)C(CO)NC(=O)OCc1ccccc1 (stereo not drawn) (Cbz-Ser-Phe-Leu-OMe; configuration not given here)
inactive: [1] 93 % of control | [2] 93 % of control | [3] 94 % of control

Nc1nc(N)nc(-c2ccccn2)n1
inactive: dose: 12.5 mg/kg/injection, schedule: Q01DX009 (ip), vehicle: saline with Tween-80 105 % of control | dose: 25.0 mg/kg/injection, schedule: Q01DX009 (ip), vehicle: saline with Tween-80 92 % of control | dose: 50.0 mg/kg/injection, schedule: Q01DX009 (ip), vehicle: saline with Tween-80 105 % of control

CC1(C)CN=C(c2ccc([N+](=O)[O-])cc2)S1
inactive: dose: 100.0 mg/kg/injection, schedule: Q01DX001 (ip), vehicle: Klucel (hydroxypropylcellulose) (HPC) 100 % of control | dose: 200.0 mg/kg/injection, schedule: Q01DX001 (ip), vehicle: Klucel (hydroxypropylcellulose) (HPC) 102 % of control | dose: 400.0 mg/kg/injection, schedule: Q01DX001 (ip), vehicle: Klucel (hydroxypropylcellulose) (HPC) 100 % of control

COc1ccc(/C=C(/C(=O)c2ccc(OCCN3CCCC3)cc2)c2ccccc2)cc1OC
inactive: dose: 100.0 mg/kg/injection, schedule: Q04DX003 (sc), vehicle: olive oil, sesame oil, peanut oil 101 % of control | dose: 200.0 mg/kg/injection, schedule: Q04DX003 (sc), vehicle: olive oil, sesame oil, peanut oil 98 % of control | dose: 400.0 mg/kg/injection, schedule: Q04DX003 (sc), vehicle: olive oil, sesame oil, peanut oil 97 % of control

CC(C)/C=C(\C#N)C(=O)O
inactive: dose: 12.5 mg/kg/injection, schedule: Q04DX003 (ip), vehicle: Klucel (hydroxypropylcellulose) (HPC) 97 % of control | dose: 25.0 mg/kg/injection, schedule: Q01DX009 (ip), vehicle: Klucel (hydroxypropylcellulose) (HPC) 95 % of control | dose: 25.0 mg/kg/injection, schedule: Q04DX003 (ip), vehicle: Klucel (hydroxypropylcellulose) (HPC) 101 % of control | dose: 50.0 mg/kg/injection, schedule: Q01DX009 (ip), vehicle: Klucel (hydroxypropylcellulose) (HPC) 95 % of control | dose: 50.0 mg/kg/injection, schedule: Q04DX003 (ip), vehicle: Klucel (hydroxypropylcellulose) (HPC) 98 % of control

CCCCCCCCCCCCCCCCCCSC(C)(C)SCCCCCCCCCCCCCCCCCC
inactive: [4] 106 % of control | [5] 89 % of control | [6] 92 % of control

CC(C)CC(C=O)(CCN1CCCCC1)c1cccc2ccccc12 (centres undefined)
inactive: [4] 87 % of control and 88 % of control | [7] 98 % of control | [5] 94 % of control and 91 % of control | [8] 91 % of control | [6] 91 % of control

CCOC(=O)C(C(C)=O)C(C)=O
inactive: dose: 50.0 mg/kg/injection, schedule: Q01DX001 (ip), vehicle: saline 101 % of control | [1] 107 % of control | [2] 97 % of control | [3] 97 % of control

COC(CC[P+](c1ccccc1)(c1ccccc1)c1ccccc1)(C(=O)c1ccccc1)c1ccccc1 (centres undefined)
inactive: dose: 15.0 mg/kg/injection, schedule: Q01DX001 (ip), vehicle: carboxymethylcellulose (CMC) 96 % of control | dose: 30.0 mg/kg/injection, schedule: Q01DX001 (ip), vehicle: carboxymethylcellulose (CMC) 90 % of control | dose: 60.0 mg/kg/injection, schedule: Q01DX001 (ip), vehicle: carboxymethylcellulose (CMC) 89 % of control

CN(c1ccccc1Cl)c1ccccc1Cl
inactive: dose: 64.0 mg/kg/injection, schedule: Q04DX002 (ip), vehicle: saline with Tween-80 104 % of control | dose: 160.0 mg/kg/injection, schedule: Q04DX002 (ip), vehicle: saline with Tween-80 89 % of control | [6] 86 % of control

C=C(C)C1CCC2(C=O)CCC3(C)C(CCC4C5(C)CCC(OC6CCCCO6)C(C)(C)C5CCC43C)C12 (centres undefined)
inactive: dose: 25.0 mg/kg/injection, schedule: Q04DX002 (ip), vehicle: saline with Tween-80 90 % of control | [4] 90 % of control

COC(=O)CCC(=O)c1ccc(OC)cc1
inactive: [9] 94 % of control | [10] 100 % of control | [11] 96 % of control

[CH3][Sn]([CH3])=[O]
inactive: dose: 5.0 mg/kg/injection, schedule: Q01DX001 (ip), vehicle: other 95 % of control | [12] 107 % of control | dose: 10.0 mg/kg/injection, schedule: Q01DX001 (ip), vehicle: other 98 % of control | [13] 98 % of control | dose: 20.0 mg/kg/injection, schedule: Q01DX001 (ip), vehicle: other 93 % of control | [14] 108 % of control | dose: 40.0 mg/kg/injection, schedule: Q01DX001 (ip), vehicle: other 103 % of control | [15] 95 % of control

CCCCCCc1c(N)nc(N)[nH]c1=O
inactive: dose: 100.0 mg/kg/injection, schedule: Q01DX001 (ip), vehicle: saline with Tween-80 98 % of control | dose: 200.0 mg/kg/injection, schedule: Q01DX001 (ip), vehicle: saline with Tween-80 89 % of control | dose: 400.0 mg/kg/injection, schedule: Q01DX001 (ip), vehicle: saline with Tween-80 98 % of control

Clc1ccc(CSc2ncc(Br)c(Nc3cc(Cl)ccc3Cl)n2)cc1
inactive: dose: 50.0 mg/kg/injection, schedule: Q01DX Z (ip), vehicle: methylcellulose (MC) 96 % of control | dose: 200.0 mg/kg/injection, schedule: Q01DX Z (ip), vehicle: methylcellulose (MC) 89 % of control

FC(F)(CI)C(F)(F)C(F)(F)CI
inactive: dose: 100.0 mg/kg/injection, schedule: Q01DX001 (ip), vehicle: acetone 88 % of control | dose: 200.0 mg/kg/injection, schedule: Q01DX001 (ip), vehicle: acetone 88 % of control | dose: 400.0 mg/kg/injection, schedule: Q01DX001 (ip), vehicle: acetone 88 % of control

CC1([CH2][Hg][I])CS(=O)(=O)CC(C)([CH2][Hg][I])O1 (centres undefined)
inactive: [12] 104 % of control | dose: 5.0 mg/kg/injection, schedule: Q01DX015 (ip), vehicle: saline 94 % of control | [13] 104 % of control | dose: 10.0 mg/kg/injection, schedule: Q01DX015 (ip), vehicle: saline 97 % of control | [14] 96 % of control | dose: 20.0 mg/kg/injection, schedule: Q01DX015 (ip), vehicle: saline 102 % of control | [15] 98 % of control | dose: 40.0 mg/kg/injection, schedule: Q01DX015 (ip), vehicle: saline 108 % of control | dose: 80.0 mg/kg/injection, schedule: Q01DX001 (ip), vehicle: saline 104 % of control

O=C(NCCCCCCCCCNC(=O)Nc1ccc(C2=NCCCN2)cc1)Nc1ccc(C2=NCCCN2)cc1
inactive: dose: 3.75 mg/kg/injection, schedule: Q01DX Z (ip), vehicle: carboxymethylcellulose (CMC) 91 % of control | dose: 7.5 mg/kg/injection, schedule: Q01DX Z (ip), vehicle: carboxymethylcellulose (CMC) 98 % of control | dose: 15.0 mg/kg/injection, schedule: Q01DX Z (ip), vehicle: carboxymethylcellulose (CMC) 122 % of control

COc1ccc2nc3ccccc3c(NCCCN(C)C)c2c1
inactive: [12] 115 % of control | [13] 115 % of control | [14] 107 % of control | [15] 106 % of control

CCN=C(N)SCC
inactive: [7] 95 % of control | [8] 95 % of control

CC(=O)C(C)(C)/C(C)=C/C(=O)O
inactive: [9] 95 % of control | dose: 100.0 mg/kg/injection, schedule: Q04DX003 (ip), vehicle: Klucel (hydroxypropylcellulose) (HPC) 100 % of control | [10] 95 % of control | dose: 200.0 mg/kg/injection, schedule: Q04DX003 (ip), vehicle: Klucel (hydroxypropylcellulose) (HPC) 100 % of control | [11] 98 % of control | dose: 400.0 mg/kg/injection, schedule: Q04DX003 (ip), vehicle: Klucel (hydroxypropylcellulose) (HPC) 97 % of control

Nc1c([N+](=O)[O-])cc([N+](=O)[O-])c2ccccc12
inactive: dose: 15.0 mg/kg/injection, schedule: Q01DX015 (ip), vehicle: carboxymethylcellulose (CMC) 91 % of control | dose: 30.0 mg/kg/injection, schedule: Q01DX015 (ip), vehicle: carboxymethylcellulose (CMC) 91 % of control | dose: 50.0 mg/kg/injection, schedule: Q01DX001 (ip), vehicle: carboxymethylcellulose (CMC) 104 % of control | dose: 60.0 mg/kg/injection, schedule: Q01DX015 (ip), vehicle: carboxymethylcellulose (CMC) 102 % of control | dose: 100.0 mg/kg/injection, schedule: Q01DX001 (ip), vehicle: carboxymethylcellulose (CMC) 101 % of control | dose: 120.0 mg/kg/injection, schedule: Q01DX015 (ip), vehicle: carboxymethylcellulose (CMC) 98 % of control

CC(C)C1(C(C)C)S(=O)(=O)CCS1(=O)=O
inactive: [1] 98 % of control | [2] 93 % of control | [3] 102 % of control
